Results as given in patent US9687529B2, “Method of controlling coagulation” (Duke University, priority 2011, dated 2017).
Where “and” joins values, the source holds several entries; their conditions need not be identical. Equal entries are not always repeated. Entries after “also recorded” stand apart in the source; their conditions may differ.

Legend:
[1] = test system: clot formation in whole blood; experiment: Thromboelastography (TEG), whole blood stimulated with kaolin; type: cell-based, human
Experimental: Blood was drawn from healthy, consented volunteers under a Duke University Institutional Review Board approved protocol and anticoagulated with 3.2% sodium citrate. Whole blood (320 μL) was mixed with anticoagulant (heparin or aptamers) (10 μL) and kaolin (Haemonetics, Niles, Ill.) (10 μL) or CAT PRP reagent (Diagnostica Stago, 0.33 ρM TF final) (10 μL) was added to stimulate clotting. CaCl2 (20 μL) was immediately added to overcome the citrate, the mixture was added to a plain disposable plastic TEG cup (Haemonetics), and the assay was run according to the manufacturer's instructions. Clot formation at 37° C. was measured with a Thromboelastograph Analyzer (Haemonetics, Niles, Ill.) until a stable clot was formed (i.e., a maximum amplitude was reached) or for three hours with the aptamer combinations. The time lag time, α-angle, and maximum amplitude were automatically calculated by the TEG® Analytical Software version 4.2.3 (Haemonetics).
Although the aPTT, PT, and CAT assays provide basic information about dose-dependent anticoagulation, these assays are performed in an environment that lacks platelets. Platelets play a crucial role in clot formation by providing a membrane surface upon which the clotting factors assemble, by aggregating and becoming physically incorporated into the blood clot, and by releasing internal stores of agonists that amplify coagulation (Monroe et al, Arterioscler Thromb Vasc Biol 22:138 1-9 (2002)). Therefore, a study was made of aptamer anticoagulation with thromboelastography (TEG), which provides real-time information about the kinetics of clot formation in whole blood (Reikvam et al, Transfus Apher Sci; 40:119-23 (2009). The TEG assay uses mechanical motion to quantify the physical properties of clot formation, including the lag time (the time until clot formation), the α-angle (the rate of clot formation), and the maximum amplitude (the mechanical strength of the clot formed).

[2] = test system: thrombin generation in normal human platelet poor plasma; experiment: Calibrated automated thrombography (CAT); type: biochemical
Experimental: Normal human platelet poor plasma (80 μL) was mixed with aptamer(s) (10 μL) in an Immunolon 2HB U Bottom Mictrotiter 96-well plate (Thermo Labsystems, Franklin, Mass.) and incubated at 37° C. for 5 min. PPP reagent (Diagnostica Stago, Parsippany, N.J.) (either 1 ρM or 5 ρM TF, 20 μL, Diagnostica Stago) was added, and the mixture was incubated at 37° C. for another 5 min. FluCa (Diagnostica Stago) (10 μL) was added to initiate the assay and thrombin generation was measured for 60 minutes at 37° C. with a Fluoroskan Ascent fluorometer (ThermoLabsystem, Helsinki, Finland) according to the manufacturer's instructions. The amount of thrombin generated was quantified by comparison to an assay with thrombin calibrator reagent (Diagnostica Stago) that has a known activity toward the fluorogenic substrate. The lag time, peak amount of thrombin generated, and endogenous thrombin potential (ETP) were automatically calculated by the Thrombinoscope software (Thrombinoscope BV, the Netherlands).
Thrombin is the final protease formed in the coagulation cascade, and the rate of thrombin generation and the total amount of thrombin generated is associated with blood clot formation and stability (Wolberg, Blood Rev 21:131-42 (2007)). To gain more information about the impact of aptamer anticoagulation on the kinetics of thrombin generation, the individual aptamers were analyzed with calibrated automated thrombography (CAT). The CAT assay measures real-time thrombin generation in plasma by monitoring cleavage of a thrombin-specific fluorogenic substrate in response to TF stimulation (Heruker et al, Pathophysiol Haemost Thromb 33: 4-15 (2003)). The parameters of thrombin generation analyzed include: the lag time (time until thrombin generation begins), the peak (the maximal amount of thrombin generated at a given time) and the endogenous thrombin potential (ETP, the total amount of thrombin generated). Similar to the aPTT and PT clotting assays, all of the individual aptamers dose-dependently impacted the various parameters of thrombin generation (FIG. 21 and Table 1). […] 9.3T minorly impacted all parameters of thrombin generation with the high TF reagent; however, because high concentrations of TF may bypass FIX activity by directly generating FXa, the manufacturer recommends low concentrations of TF for analyzing FIX deficient (i.e, Hemophilia B) plasma in the CAT.

Substance: 9.3T: FIXa aptamer, 2'-fluoropyrimidine modified RNA, SEQ ID NO: 1 (AUGGGGACUAUACCGCGUAAUGCUGCCUCCCCAU; 2'-fluoro at CU, RNA at AG, backbone not given here) [Aptamer 9.3T]
- Angle ([1]; RNA 0.5 μM): 41.4 ± 0.5 deg
- Lag-time ([1]; RNA 0.5 μM): 22.8 ± 2.0 min
- Max. Amplitude ([1]; RNA 0.5 μM): 55.4 ± 3.2 mm
- Angle ([1]; RNA 1.0 μM): 37.6 deg and 37.6 ± 7.1 deg
- Lag-time ([1]; RNA 1.0 μM): 25.5 min and 25.5 ± 1.8 min
- Max. Amplitude ([1]; RNA 1.0 μM): 55.4 mm and 55.4 ± 2.6 mm
- Angle ([1]; RNA 2.0 μM): 36.9 ± 2.9 deg
- Lag-time ([1]; RNA 2.0 μM): 29.9 ± 1.4 min
- Max. Amplitude ([1]; RNA 2.0 μM): 55.9 ± 3.4 mm
- ETP ([2]; RNA 15 nM, TF 1 ρM): 1463.50 ± 19.59 nM·min
- Lag-time ([2]; RNA 15 nM, TF 1 ρM): 3.06 ± 0.15 min
- Peak ([2]; RNA 15 nM, TF 1 ρM): 195.04 ± 6.91 nM
- TTP ([2]; RNA 15 nM, TF 1 ρM): 7.34 ± 0.26 min
- ETP ([2]; RNA 15 nM, TF 5 ρM): 1812.50 ± 81.01 nM·min
- Lag-time ([2]; RNA 15 nM, TF 5 ρM): 1.72 ± 0.20 min
- Peak ([2]; RNA 15 nM, TF 5 ρM): 341.90 ± 12.54 nM
- TTP ([2]; RNA 15 nM, TF 5 ρM): 4.23 ± 0.24 min
- ETP ([2]; RNA 30 nM, TF 1 ρM): 1350.17 ± 28.02 nM·min
- Lag-time ([2]; RNA 30 nM, TF 1 ρM): 3.00 ± 0.10 min
- Peak ([2]; RNA 30 nM, TF 1 ρM): 147.88 ± 4.28 nM
- TTP ([2]; RNA 30 nM, TF 1 ρM): 8.12 ± 0.34 min
- ETP ([2]; RNA 30 nM, TF 5 ρM): 1723.67 ± 57.51 nM·min
- Lag-time ([2]; RNA 30 nM, TF 5 ρM): 1.56 ± 0.20 min
- Peak ([2]; RNA 30 nM, TF 5 ρM): 316.98 ± 3.28 nM
- TTP ([2]; RNA 30 nM, TF 5 ρM): 4.28 ± 0.40 min
- ETP ([2]; RNA 60 nM, TF 1 ρM): 1261.50 ± 64.85 nM·min
- Lag-time ([2]; RNA 60 nM, TF 1 ρM): 2.89 ± 0.15 min
- Peak ([2]; RNA 60 nM, TF 1 ρM): 110.65 ± 6.70 nM
- TTP ([2]; RNA 60 nM, TF 1 ρM): 8.95 ± 0.15 min
- ETP ([2]; RNA 60 nM, TF 5 ρM): 1741.10 ± 78.84 nM·min
- Lag-time ([2]; RNA 60 nM, TF 5 ρM): 1.70 ± 0.11 min
- Peak ([2]; RNA 60 nM, TF 5 ρM): 283.76 ± 3.20 nM
- TTP ([2]; RNA 60 nM, TF 5 ρM): 4.90 ± 0.31 min
- ETP ([2]; RNA 120 nM, TF 1 ρM): 1125.00 ± 31.79 nM·min
- Lag-time ([2]; RNA 120 nM, TF 1 ρM): 2.72 ± 0.05 min
- Peak ([2]; RNA 120 nM, TF 1 ρM): 86.13 ± 3.02 nM
- TTP ([2]; RNA 120 nM, TF 1 ρM): 9.34 ± 0.19 min
- ETP ([2]; RNA 120 nM, TF 5 ρM): 1674.50 ± 56.02 nM·min
- Lag-time ([2]; RNA 120 nM, TF 5 ρM): 1.60 ± 0.15 min
- Peak ([2]; RNA 120 nM, TF 5 ρM): 272.90 ± 9.97 nM
- TTP ([2]; RNA 120 nM, TF 5 ρM): 4.74 ± 0.37 min

Substance: R9D-14T: prothrombin/thrombin aptamer, 58-base truncation of RNA9D-14, SEQ ID NO: 3 (GGCGGTCGATCACACAGTTCAAACGTAATAAGCCAATGTACGAGGCAGACGACTCGCC; 2'-fluoro at CT, RNA at AG, backbone and T or U not given here) [Aptamer R9D-14T]
- Angle ([1]; RNA 1.25 μM): 60.4 ± 2.4 deg
- Lag-time ([1]; RNA 1.25 μM): 7.1 ± 1.4 min
- Max. Amplitude ([1]; RNA 1.25 μM): 62.0 ± 3.0 mm
- Angle ([1]; RNA 2.0 μM): 48.1 ± 9.7 deg
- Lag-time ([1]; RNA 2.0 μM): 8.3 ± 2.0 min
- Max. Amplitude ([1]; RNA 2.0 μM): 56.0 ± 6.3 mm
- Angle ([1]; RNA 5.0 μM): 30 deg and 30.0 ± 5.7 deg
- Lag-time ([1]; RNA 5.0 μM): 21.5 min and 21.5 ± 4.9 min
- Max. Amplitude ([1]; RNA 5.0 μM): 49.6 mm and 49.6 ± 3.6 mm
- ETP ([2]; RNA 625 nM, TF 5 ρM): 1492.50 ± 54.94 nM·min
- Lag-time ([2]; RNA 625 nM, TF 5 ρM): 1.55 ± 0.08 min
- Peak ([2]; RNA 625 nM, TF 5 ρM): 314.82 ± 25.02 nM
- TTP ([2]; RNA 625 nM, TF 5 ρM): 3.88 ± 0.18 min
- ETP ([2]; RNA 1,250 nM, TF 5 ρM): 1293.00 ± 67.66 nM·min
- Lag-time ([2]; RNA 1,250 nM, TF 5 ρM): 1.55 ± 0.08 min
- Peak ([2]; RNA 1,250 nM, TF 5 ρM): 269.45 ± 13.17 nM
- TTP ([2]; RNA 1,250 nM, TF 5 ρM): 3.67 ± 0.18 min
- ETP ([2]; RNA 2,500 nM, TF 5 ρM): 1170.90 ± 90.47 nM·min
- Lag-time ([2]; RNA 2,500 nM, TF 5 ρM): 4.37 ± 0.71 min
- Peak ([2]; RNA 2,500 nM, TF 5 ρM): 192.66 ± 31.04 nM
- TTP ([2]; RNA 2,500 nM, TF 5 ρM): 7.64 ± 1.31 min
- thrombin generation (in words) ([2]; RNA 5,000 nM (5 μM), TF 5 ρM): completely inhibited thrombin generation; also recorded: no thrombin generation detected

Substance: 11F7T: FXa aptamer, 2'-fluoropyrimidine modified RNA, SEQ ID NO: 2 (GAGAGCCCCAGCGAGAUAAUACUUGGCCCCGCUCUU; 2'-fluoro at CU, RNA at AG, backbone not given here) [Aptamer 11F7T]
- Angle ([1]; RNA 0.5 μM): 40.3 ± 1.4 deg
- Lag-time ([1]; RNA 0.5 μM): 15.6 ± 0.8 min
- Max. Amplitude ([1]; RNA 0.5 μM): 52.4 ± 1.6 mm
- Angle ([1]; RNA 1.0 μM): 28.7 ± 5.0 deg
- Lag-time ([1]; RNA 1.0 μM): 20.6 ± 3.0 min
- Max. Amplitude ([1]; RNA 1.0 μM): 48.2 ± 3.7 mm
- Angle ([1]; RNA 2.0 μM): 18 deg and 18.0 ± 5.9 deg
- Lag-time ([1]; RNA 2.0 μM): 39.6 min and 39.6 ± 9.1 min
- Max. Amplitude ([1]; RNA 2.0 μM): 39.6 mm and 39.6 ± 4.4 mm
- ETP ([2]; RNA 125 nM, TF 5 ρM): 1612.90 ± 142.40 nM·min
- Lag-time ([2]; RNA 125 nM, TF 5 ρM): 3.00 ± 0.22 min
- Peak ([2]; RNA 125 nM, TF 5 ρM): 227.75 ± 43.47 nM
- TTP ([2]; RNA 125 nM, TF 5 ρM): 7.24 ± 0.77 min
- ETP ([2]; RNA 250 nM, TF 5 ρM): 1220.50 ± 182.02 nM·min
- Lag-time ([2]; RNA 250 nM, TF 5 ρM): 4.94 ± 0.38 min
- Peak ([2]; RNA 250 nM, TF 5 ρM): 120.68 ± 21.79 nM
- TTP ([2]; RNA 250 nM, TF 5 ρM): 11.70 ± 1.13 min
- ETP ([2]; RNA 500 nM, TF 5 ρM): 738.60 ± 202.92 nM·min
- Lag-time ([2]; RNA 500 nM, TF 5 ρM): 7.97 ± 0.93 min
- Peak ([2]; RNA 500 nM, TF 5 ρM): 65.56 ± 14.57 nM
- TTP ([2]; RNA 500 nM, TF 5 ρM): 16.47 ± 1.83 min
- ETP ([2]; RNA 1,000 nM, TF 5 ρM): 459.40 ± 199.39 nM·min
- Lag-time ([2]; RNA 1,000 nM, TF 5 ρM): 9.50 ± 1.00 min
- Peak ([2]; RNA 1,000 nM, TF 5 ρM): 36.84 ± 14.42 nM
- TTP ([2]; RNA 1,000 nM, TF 5 ρM): 20.10 ± 2.96 min
